From PMC12150326 (The Journal of Organic Chemistry, 2025)
Read-outs that look alike come from different tables or passages of the source.

What was measured:
Type in all cases: cell-based, human
786-0 = tested on: 786-0
Protocol: (§1) (aR)-6, (aS)-6, (aS)-iso -6, and (aR)-iso -6 were submitted to the 60 Cell Screen panel and evaluated at 5 doses (100 μM, 10 μM, 1 μM, 0.1 μM, and 0.01 μM). […] The complete report from this submission is available at the publisher’s Web site as a separate Supporting Information file. For COMPARE analysis, TGI levels of response for (aR)-DM-MTC (6) and (aS)-iso-DM-MTC were compared to those of several established tubulin inhibitors previously tested in the NCI-60 screen.

ACHN = tested on: ACHN
Protocol: as §1

BT-549 = tested on: BT-549
Protocol: as §1

CCRF-CEM = tested on: CCRF-CEM
Protocol: as §1

HCC-2998 = tested on: HCC-2998
Protocol: as §1

HOP-92 = tested on: HOP-92
Protocol: as §1

HT29 = tested on: HT29
Protocol: as §1

IGROV1 = tested on: IGROV1
Protocol: as §1

LOX IMVI = tested on: LOX IMVI
Protocol: as §1

M14 = tested on: M14
Protocol: as §1

MALME-3M = tested on: MALME-3M
Protocol: as §1

MCF7 = tested on: MCF7
Protocol: as §1

MDA-MB-468 = tested on: MDA-MB-468
Protocol: as §1

NCI-H226 = tested on: NCI-H226
Protocol: as §1

NCI-H522 = tested on: NCI-H522
Protocol: as §1

`COc1cc(C)c(-c2ccc(OC)c(=O)cc2C)c(OC)c1OC` (single isomer, unassigned) [(aR)-6] was tested, and the Log10GI50 (786-0) was -5.35 Molar, the Log10LC50 (786-0) was greater than -4.00 Molar and the Log10TGI (786-0) was greater than -4.00 Molar. For the same compound, the GI50 (786-0; Homo sapiens) was 4470 nM, the Log10GI50 (786-0; listed as (aR)-DM-MTC) was -5.35 Molar and the Log10GI50 (ACHN) was -5.27 Molar. The Log10LC50 (ACHN) was greater than -4.00 Molar, the Log10TGI (ACHN) was greater than -4.00 Molar and the GI50 (ACHN; Homo sapiens) was 5370 nM. It also gave a Log10GI50 (ACHN; listed as (aR)-DM-MTC) of -5.27 Molar, a Log10GI50 (BT-549) of -5.69 Molar and a Log10LC50 (BT-549) greater than -4.00 Molar. For the same compound, the Log10TGI (BT-549) was -5.18 Molar, the GI50 (BT-549; Homo sapiens) was 2040 nM and the Log10GI50 (BT-549; listed as (aR)-DM-MTC) was -5.69 Molar. It also gave a Log10GI50 (CCRF-CEM) of -5.71 Molar, a Log10LC50 (CCRF-CEM) greater than -4.00 Molar and a Log10TGI (CCRF-CEM) greater than -4.00 Molar. It also gave a GI50 (CCRF-CEM; Homo sapiens) of 1950 nM, a Log10GI50 (CCRF-CEM; listed as (aR)-DM-MTC) of -5.71 Molar and a Log10GI50 (HCC-2998) of -5.55 Molar. For the same compound, the Log10LC50 (HCC-2998) was greater than -4.00 Molar, the Log10TGI (HCC-2998) was greater than -4.00 Molar and the GI50 (HCC-2998; Homo sapiens) was 2820 nM. It also gave a Log10GI50 (HCC-2998; listed as (aR)-DM-MTC) of -5.55 Molar, a Log10GI50 (HOP-92) of -5.45 Molar and a Log10LC50 (HOP-92) greater than -4.00 Molar. It also gave a Log10TGI (HOP-92) greater than -4.00 Molar, a GI50 (HOP-92; Homo sapiens) of 3550 nM and a Log10GI50 (HOP-92; listed as (aR)-DM-MTC) of -5.45 Molar. The Log10GI50 (HT29) was -5.73 Molar, the Log10LC50 (HT29) was greater than -4.00 Molar and the Log10TGI (HT29) was -5.02 Molar. For the same compound, the GI50 (HT29; Homo sapiens, HT-29) was 1860 nM, the Log10GI50 (HT29; listed as (aR)-DM-MTC) was -5.73 Molar and the Log10GI50 (IGROV1) was -5.37 Molar. The Log10LC50 (IGROV1) was greater than -4.00 Molar, the Log10TGI (IGROV1) was greater than -4.00 Molar and the GI50 (IGROV1; Homo sapiens, IGROV-1) was 4270 nM. It also gave a Log10GI50 (IGROV1; listed as (aR)-DM-MTC) of -5.37 Molar, a Log10GI50 (LOX IMVI) of -5.69 Molar and a Log10LC50 (LOX IMVI) greater than -4.00 Molar. For the same compound, the Log10TGI (LOX IMVI) was greater than -4.00 Molar, the GI50 (LOX IMVI; Homo sapiens) was 2040 nM and the Log10GI50 (LOX IMVI; listed as (aR)-DM-MTC) was -5.69 Molar. For the same compound, the Log10GI50 (M14) was -6.07 Molar, the Log10LC50 (M14) was greater than -4.00 Molar and the Log10TGI (M14) was greater than -4.00 Molar. It also gave a GI50 (M14; Homo sapiens) of 850 nM, a Log10GI50 (M14; listed as (aR)-DM-MTC) of -6.07 Molar and a Log10LC50 (MALME-3M) greater than -4.00 Molar. For the same compound, the Log10TGI (MALME-3M) was greater than -4.00 Molar, the Log10GI50 (MCF7) was -6.11 Molar and the Log10LC50 (MCF7) was greater than -4.00 Molar. For the same compound, the Log10TGI (MCF7) was greater than -4.00 Molar, the GI50 (MCF7; Homo sapiens) was 780 nM and the Log10GI50 (MCF7; listed as (aR)-DM-MTC) was -6.11 Molar. It also gave a Log10GI50 (MDA-MB-468) of -5.97 Molar, a Log10LC50 (MDA-MB-468) greater than -4.00 Molar and a Log10TGI (MDA-MB-468) greater than -4.00 Molar. It also gave a GI50 (MDA-MB-468; Homo sapiens) of 1070 nM, a Log10GI50 (MDA-MB-468; listed as (aR)-DM-MTC) of -5.97 Molar and a Log10GI50 (NCI-H226) of -5.41 Molar. The Log10LC50 (NCI-H226) was greater than -4.00 Molar, the Log10TGI (NCI-H226) was greater than -4.00 Molar and the GI50 (NCI-H226; Homo sapiens) was 3890 nM. For the same compound, the Log10GI50 (NCI-H226; listed as (aR)-DM-MTC) was -5.41 Molar and the Log10GI50 (NCI-H522) was -5.73 Molar.
